# Measurements published in paper PMC9540496 (Clinical Pharmacology and Therapeutics, 2022).
# Marks after values point to notes of the source that are not given here.
# Key:
# [1] = Phase I crossover DDI study: dabigatran etexilate; assay type: in vivo, human
# [2] = Endogenous biomarkers NMN; assay type: in vivo, human; conditions: for Tmax: median (range)
# clinical = conditions: both, human, plasma, oral, 500 mg
# [3] = Phase I crossover DDI study: metformin; conditions: metformin 500 mg alone; median (range)
# [4] = Phase I crossover DDI study: rosuvastatin; assay type: in vivo, human
# [5] = cited from earlier work
# [6] = Static perpetrator DDI risk assessment; conditions: for Theoretical gut concentration (Igut): 200 mg/250 mL
# [7] = Safety across the three phase I pharmacokinetic studies; assay type: in vivo, human
# P‐gp = test: Anticipated effect of abrocitinib on digoxin, not formally evaluated; conditions: assuming complete P‐gp inhibition
# [8] = both, human, plasma, oral, 75 mg
# [9] = dabigatran etexilate 75 mg + abrocitinib 200 mg vs alone
# [10] = dabigatran etexilate 75 mg ± abrocitinib 200 mg single dose
# [11] = rosuvastatin 10 mg ± abrocitinib 200 mg QD
smiles,measurement,setting,value
"[H]/N=C(/N)c1ccc(NCc2nc3cc(C(=O)N(CCC(=O)O)c4ccccn4)ccc3n2C)cc1 [Dabigatran, dabigatran]",increase of plasma exposure on co‐administration with abrocitinib,[1]; abstract statement,~ 50%
same,Cmax,[1]; [8],30.2 ng/mL
same,half-life,[1]; [8],8.93 ± 2.28 h
same,increase of AUCinf on co‐administration with abrocitinib,[1]; [9],53%
same,increase of Cmax on co‐administration with abrocitinib,[1]; [9],40%
same,AUCinf ratio of abrocitinib + substrate vs. substrate alone AGm (90% CI),[1]; [10],1.53 (1.09–2.15)
same,Cmax ratio of abrocitinib + substrate vs. substrate alone AGm (90% CI),[1]; [10],1.40 (0.92–2.13)
"CC(C)C(=O)O[C@H](CC(=O)[O-])C[N+](C)(C)C [IBC, isobutyryl‐L‐carnitine]",AUC24 ratio of abrocitinib + metformin vs. metformin alone AGm (90% CI),[2]; IBC,0.95 (0.85–1.05) ^c
same,Cmax ratio of abrocitinib + metformin vs. metformin alone AGm (90% CI),[2]; IBC,0.95 (0.85–1.06) ^c
same,AUC24,"[2]; IBC in plasma, metformin 500 mg alone, geometric mean (geometric %CV), N = 12",1187 (56) ng•hour/mL
same,Cmax,"[2]; IBC, abrocitinib 200 mg + metformin 500 mg, geometric mean (geometric %CV)",56.6 (55) ng/mL
same,Tmax,"[2]; IBC, abrocitinib 200 mg + metformin 500 mg",14.0 (0.00–23.8) hour
same,effect of abrocitinib co‐administration with metformin on AUC24 or Cmax,"[2]; IBC, compared with metformin alone",did not alter
same,Cmax,"[2]; IBC, metformin 500 mg alone, geometric mean (geometric %CV)",59.7 (56) ng/mL
same,Tmax,"[2]; IBC, metformin 500 mg alone",16.0 (0.00–23.8) hour
"CN(C)C(=N)N=C(N)N [Metformin, metformin]",AUC(0-inf),clinical,5200 ng·h/mL
same,Cmax,clinical,721 ng/mL
same,Tmax,[3],4.00 (1.00–4.00) hour
"CC(C)c1nc(N(C)S(C)(=O)=O)nc(-c2ccc(F)cc2)c1/C=C/[C@@H](O)C[C@@H](O)CC(=O)O [Rosuvastatin, rosuvastatin]",plasma exposure and CLr on co‐administration with abrocitinib,[4]; 90% CIs within acceptance range of 80–125%,unaffected
same,AUC(0-inf),"[4]; both, human, plasma, oral, 10 mg",57.6 ng·h/mL
same,CL renal,"[4]; both, human, urine and plasma, oral, 10 mg",243 mL/min
same,Cmax,"[4]; rosuvastatin 10 mg alone, geometric mean (geometric %CV)",5.38 (53) ng/mL
same,AUCinf ratio of abrocitinib + substrate vs. substrate alone AGm (90% CI),[4]; [11],1.02 (0.93–1.12) ^c
same,CLr ratio of abrocitinib + substrate vs. substrate alone AGm (90% CI),[4]; [11],0.91 (0.83–1.01) ^c
same,Cmax ratio of abrocitinib + substrate vs. substrate alone AGm (90% CI),[4]; [11],0.99 (0.86–1.14) ^c
same,increase of rosuvastatin AUC with ABCG2 421A/A vs. wild‐type,[5]; ABCG2 (BCRP) polymorphism,~ 2 fold
same,parent drug recovered in urine,[5]; after oral dosing,10%
"CCCS(=O)(=O)N[C@H]1C[C@@H](N(C)c2ncnc3[nH]ccc23)C1 [abrocitinib, Abrocitinib]",absorption rate constant (ka),[6],0.067 min⁻¹
same,fraction absorbed (fafg),[6],0.91
same,Theoretical gut concentration (Igut),[6],0.8 mg/mL
same,Theoretical gut concentration (Igut),[6]; MW 323.4,2.47 mM
same,0.1 × molar dose/250 mL,"[6]; cutoff for intestinal transporters, 200 mg dose",247 µM
same,"50 × Cmax,u","[6]; cutoff for systemic transporters, unbound steady-state Cmax",65 µM
same,"Theoretical liver inlet concentration (Iin,max,u)",[6]; fu × (Cmax + ((fafg × ka × Dose/Qh)/B/P)),9.1 µM
same,serious or severe adverse events,"[7]; all three pharmacokinetic studies, abrocitinib 200 mg with probe drugs",No serious or severe adverse events
same,tolerability,"[7]; co‐administered with a single oral dose of dabigatran etexilate, rosuvastatin, or metformin, healthy volunteers",well‐tolerated
same,anticipated maximum increase in digoxin AUC,P‐gp,≤ 30%
C[C@H]1O[C@@H](O[C@H]2[C@@H](O)C[C@H](O[C@H]3[C@@H](O)C[C@H](O[C@H]4CC[C@@]5(C)[C@H](CC[C@@H]6[C@@H]5C[C@@H](O)[C@]5(C)[C@@H](C7=CC(=O)OC7)CC[C@]65O)C4)O[C@@H]3C)O[C@@H]2C)C[C@H](O)[C@@H]1O [digoxin],absolute bioavailability,[5],75–78%
CCCN(CCC)S(=O)(=O)c1ccc(C(=O)O)cc1 [probenecid],decrease in CLr of rosuvastatin or furosemide in the presence of probenecid,"[5]; OAT3 index inhibitor, approximate five‐fold",~80%
C=C[C@H]1C[N@@]2CC[C@H]1C[C@@H]2[C@@H](O)c1ccnc2ccc(OC)cc12 [quinidine],increase of dabigatran exposures,"[5]; P‐gp interaction, dabigatran labeling",50–60%
